# Key:
# Nociceptin receptor [1] = target: T1, Nociceptin receptor (Homo sapiens, UniProt P41146); assay: Antagonist activity at human ORL1 receptor by [35S]GTPgammaS binding assay; type: functional
# Nociceptin receptor [2] = target: T1, Nociceptin receptor; assay: Displacement of [125I]Tyr14-NC/OFQ from human ORL1 receptor
# [3] = Metabolic stability in human liver microsomes assessed as drug remaining after 30 mins; type: ADME, Microsome; settings: read-out: Stability
# [4] = target: T2, Delta-type opioid receptor (Homo sapiens, UniProt P41143); assay: Agonist activity at human delta opioid receptor expressed in CHO cell membrane by [35S]GTPgammaS binding assay; type: functional, cell membranes
# Mu-type opioid receptor [5] = target: T3, Mu-type opioid receptor (Homo sapiens, UniProt P35372); assay: Agonist activity at human mu opioid receptor expressed in CHO cell membrane by [35S]GTPgammaS binding assay; type: functional, cell membranes
# [6] = target: T4, Kappa-type opioid receptor (Homo sapiens, UniProt P41145); assay: Agonist activity at human kappa opioid receptor expressed in CHO cell membrane by [35S]GTPgammaS binding assay
# Mu-type opioid receptor [7] = target: T3, Mu-type opioid receptor; assay: Displacement of [3H]diprenorphin from human mu opioid receptor expressed in CHO cell membrane; type: cell membranes
# [8] = target: T4, Kappa-type opioid receptor; assay: Displacement of [3H]U-69593 from human kappa opioid receptor expressed in CHO cell membrane; type: cell membranes
# [9] = target: T2, Delta-type opioid receptor; assay: Displacement of [3H]naltrindole from human delta opioid receptor expressed in CHO cell membrane; type: cell membranes
# [10] = Ratio of drug level in brain to plasma in ICR mouse at 30 mg/kg, po after 60 mins; type: ADME, organism-based; design: dose 30 mg/kg, route oral; settings: read-out: BPR
# [11] = Half life in Sprague-Dawley rat at 3 mg/kg, po and 1 mg/kg, iv; type: ADME, organism-based; settings: in vivo
# [12] = target: Synaptic vesicular amine transporter (Homo sapiens) (UniProt Q05940); assay: Inhibition of monoamine transporter at 10 uM
# [13] = Bioavailability in Sprague-Dawley rat at 3 mg/kg, po and 1 mg/kg, iv; type: ADME, organism-based; settings: in vivo
# [14] = Half life in rhesus monkey at 3 mg/kg, po and 1 mg/kg, iv; type: ADME, organism-based, Macaca mulatta; settings: in vivo
# [15] = Bioavailability in ICR mouse at 3 mg/kg, po and 1 mg/kg, iv; type: ADME, organism-based; settings: in vivo
# Mus musculus = assay: Biodistribution in ICR mouse brain at 30 mg/kg, po after 60 mins; type: ADME, organism-based; design: dose 30 mg/kg, route oral; settings: in vivo, 1 h
# [16] = target: 5-hydroxytryptamine receptor 2B (Homo sapiens) (UniProt P41595); assay: Inhibition of 5HT2B receptor at 10 uM
# hERG (KCNH2) = hERG (KCNH2) (Homo sapiens, UniProt Q12809); assay: Inhibition of human ERG at 10 uM
# [17] = Clearance in ICR mouse at 3 mg/kg, po and 1 mg/kg, iv; type: ADME, organism-based; settings: in vivo
# [18] = Bioavailability in rhesus monkey at 3 mg/kg, po and 1 mg/kg, iv; type: ADME, organism-based, Macaca mulatta; settings: in vivo
# [19] = Inhibition of sodium channel site 2 at 10 uM
# [20] = Clearance in rhesus monkey at 3 mg/kg, po and 1 mg/kg, iv; type: ADME, organism-based, Macaca mulatta; settings: in vivo
# [21] = Clearance in Sprague-Dawley rat at 3 mg/kg, po and 1 mg/kg, iv; type: ADME, organism-based; settings: in vivo
# [22] = Half life in ICR mouse at 3 mg/kg, po and 1 mg/kg, iv; type: ADME, organism-based; settings: in vivo
# [23] = Biodistribution in ICR mouse plasma at 30 mg/kg, po after 60 mins; type: ADME, organism-based; design: dose 30 mg/kg, route oral; settings: read-out: Drug uptake
# T1 sequence (P41146 whole entry): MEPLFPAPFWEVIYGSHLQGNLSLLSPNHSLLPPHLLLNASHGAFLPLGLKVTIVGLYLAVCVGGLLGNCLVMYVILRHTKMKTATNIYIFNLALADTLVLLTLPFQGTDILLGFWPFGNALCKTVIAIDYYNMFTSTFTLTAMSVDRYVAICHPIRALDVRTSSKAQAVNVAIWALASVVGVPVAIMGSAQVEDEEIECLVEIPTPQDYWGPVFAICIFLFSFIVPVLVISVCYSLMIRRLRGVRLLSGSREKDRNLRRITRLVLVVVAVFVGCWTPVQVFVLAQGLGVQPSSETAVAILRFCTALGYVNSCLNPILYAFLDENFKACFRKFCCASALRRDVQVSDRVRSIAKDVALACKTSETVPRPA
# T2 sequence (P41143 whole entry): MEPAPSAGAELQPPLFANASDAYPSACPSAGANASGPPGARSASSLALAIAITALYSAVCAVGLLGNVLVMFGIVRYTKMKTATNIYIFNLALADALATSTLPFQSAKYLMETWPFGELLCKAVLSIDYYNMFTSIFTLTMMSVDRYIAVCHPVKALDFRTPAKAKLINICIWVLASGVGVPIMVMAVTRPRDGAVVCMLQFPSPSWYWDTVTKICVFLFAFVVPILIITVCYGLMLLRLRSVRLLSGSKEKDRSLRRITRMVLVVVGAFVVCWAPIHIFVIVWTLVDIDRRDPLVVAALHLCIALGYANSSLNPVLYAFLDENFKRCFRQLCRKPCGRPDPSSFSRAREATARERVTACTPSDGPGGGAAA
# T4 sequence (P41145 whole entry): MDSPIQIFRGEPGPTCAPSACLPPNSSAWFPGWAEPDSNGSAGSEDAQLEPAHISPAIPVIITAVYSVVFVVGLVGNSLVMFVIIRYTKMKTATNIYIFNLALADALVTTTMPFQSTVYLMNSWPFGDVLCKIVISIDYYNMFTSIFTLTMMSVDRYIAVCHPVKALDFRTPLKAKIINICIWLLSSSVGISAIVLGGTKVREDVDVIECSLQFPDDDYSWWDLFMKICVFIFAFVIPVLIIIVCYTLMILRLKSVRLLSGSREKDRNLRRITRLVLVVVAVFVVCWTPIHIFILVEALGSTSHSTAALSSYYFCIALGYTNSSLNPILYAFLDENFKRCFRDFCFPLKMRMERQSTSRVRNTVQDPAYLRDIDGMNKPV
# T3 sequence (P35372 whole entry): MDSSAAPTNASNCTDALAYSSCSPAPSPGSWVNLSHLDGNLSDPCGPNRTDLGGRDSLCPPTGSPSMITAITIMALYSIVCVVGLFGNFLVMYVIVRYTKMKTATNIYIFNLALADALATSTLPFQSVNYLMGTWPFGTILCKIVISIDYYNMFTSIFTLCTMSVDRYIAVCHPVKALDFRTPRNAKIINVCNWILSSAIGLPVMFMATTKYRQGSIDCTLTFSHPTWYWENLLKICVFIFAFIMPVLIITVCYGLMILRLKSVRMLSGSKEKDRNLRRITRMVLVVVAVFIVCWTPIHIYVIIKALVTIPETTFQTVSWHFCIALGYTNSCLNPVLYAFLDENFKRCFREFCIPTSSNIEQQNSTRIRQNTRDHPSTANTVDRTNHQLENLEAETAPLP
# Sequence of hERG (KCNH2) (Q12809 whole entry): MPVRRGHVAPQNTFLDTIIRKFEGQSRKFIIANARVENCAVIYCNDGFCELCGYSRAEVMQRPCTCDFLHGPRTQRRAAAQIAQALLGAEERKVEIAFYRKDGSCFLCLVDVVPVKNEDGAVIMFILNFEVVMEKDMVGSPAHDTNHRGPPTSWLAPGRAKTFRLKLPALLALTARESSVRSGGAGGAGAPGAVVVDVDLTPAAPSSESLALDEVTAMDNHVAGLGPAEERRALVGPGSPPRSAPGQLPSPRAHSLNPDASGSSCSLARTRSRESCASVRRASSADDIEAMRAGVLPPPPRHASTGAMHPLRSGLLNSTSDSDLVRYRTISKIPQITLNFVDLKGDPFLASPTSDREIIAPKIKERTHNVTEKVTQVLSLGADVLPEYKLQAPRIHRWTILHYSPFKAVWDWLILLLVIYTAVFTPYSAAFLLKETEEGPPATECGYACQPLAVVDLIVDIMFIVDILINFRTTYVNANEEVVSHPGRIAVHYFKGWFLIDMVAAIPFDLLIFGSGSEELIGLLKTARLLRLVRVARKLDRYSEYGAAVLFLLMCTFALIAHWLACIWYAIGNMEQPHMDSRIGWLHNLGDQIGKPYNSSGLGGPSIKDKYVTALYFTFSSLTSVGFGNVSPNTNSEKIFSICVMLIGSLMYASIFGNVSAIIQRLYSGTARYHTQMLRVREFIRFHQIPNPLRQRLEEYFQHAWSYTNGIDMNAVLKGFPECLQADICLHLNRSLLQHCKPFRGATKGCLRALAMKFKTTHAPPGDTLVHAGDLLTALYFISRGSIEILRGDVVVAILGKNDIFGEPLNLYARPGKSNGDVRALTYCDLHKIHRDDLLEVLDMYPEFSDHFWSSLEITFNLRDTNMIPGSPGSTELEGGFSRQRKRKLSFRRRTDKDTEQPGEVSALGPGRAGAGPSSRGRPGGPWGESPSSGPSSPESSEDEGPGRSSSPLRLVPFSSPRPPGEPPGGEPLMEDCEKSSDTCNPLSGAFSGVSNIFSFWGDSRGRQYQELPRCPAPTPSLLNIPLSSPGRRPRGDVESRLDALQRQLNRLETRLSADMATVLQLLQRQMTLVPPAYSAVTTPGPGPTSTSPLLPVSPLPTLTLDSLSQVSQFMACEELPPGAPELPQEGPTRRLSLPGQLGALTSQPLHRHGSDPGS
# Sequence of Synaptic vesicular amine transporter (Homo sapiens) (Q05940 whole entry): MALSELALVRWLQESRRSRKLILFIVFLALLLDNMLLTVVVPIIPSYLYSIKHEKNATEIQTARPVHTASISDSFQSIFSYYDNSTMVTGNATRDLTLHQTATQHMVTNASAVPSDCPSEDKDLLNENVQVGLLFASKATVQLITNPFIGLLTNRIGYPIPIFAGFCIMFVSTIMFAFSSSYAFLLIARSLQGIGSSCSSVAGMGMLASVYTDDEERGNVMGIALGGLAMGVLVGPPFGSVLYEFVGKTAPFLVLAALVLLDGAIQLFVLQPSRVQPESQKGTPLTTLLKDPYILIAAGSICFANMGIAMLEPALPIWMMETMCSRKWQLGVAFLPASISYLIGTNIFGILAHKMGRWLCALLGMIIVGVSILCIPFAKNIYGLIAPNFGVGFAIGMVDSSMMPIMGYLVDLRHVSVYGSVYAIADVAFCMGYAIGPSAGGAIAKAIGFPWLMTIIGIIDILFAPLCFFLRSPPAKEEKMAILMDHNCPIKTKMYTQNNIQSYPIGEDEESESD
# Sequence of 5-hydroxytryptamine receptor 2B (Homo sapiens) (P41595 whole entry): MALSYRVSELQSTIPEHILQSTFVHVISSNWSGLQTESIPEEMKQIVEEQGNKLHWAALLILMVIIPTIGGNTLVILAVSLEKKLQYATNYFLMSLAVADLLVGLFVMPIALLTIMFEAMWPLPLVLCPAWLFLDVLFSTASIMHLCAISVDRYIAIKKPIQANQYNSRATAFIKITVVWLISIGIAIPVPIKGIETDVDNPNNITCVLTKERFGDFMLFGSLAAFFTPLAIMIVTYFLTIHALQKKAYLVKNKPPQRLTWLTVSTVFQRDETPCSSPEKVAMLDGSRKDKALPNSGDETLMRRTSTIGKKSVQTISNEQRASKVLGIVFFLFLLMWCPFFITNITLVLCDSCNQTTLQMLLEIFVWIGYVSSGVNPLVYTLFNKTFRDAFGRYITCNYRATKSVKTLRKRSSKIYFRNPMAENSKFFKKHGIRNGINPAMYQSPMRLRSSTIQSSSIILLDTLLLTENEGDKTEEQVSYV
smiles,measurement,setting,value
CCC(CC)Sc1nc2cc(Cl)c(N3CCN(CCO)C(C)(C)C3)cc2[nH]1,IC50,Nociceptin receptor [1],59 nM
same,IC50,Nociceptin receptor [2],73 nM
same,remaining at 0.5 h,[3],7%
CCC(CC)Sc1nc2cc(Cl)c(N3C[C@@H]4C[C@H]3CN4CCO)cc2[nH]1,IC50,Nociceptin receptor [1],27 nM
same,IC50,Nociceptin receptor [2],18 nM
same,remaining at 0.5 h,[3],63%
C[C@H]1CN(CCO)CCN1c1cc2[nH]c(SC(C)(C)C)nc2cc1Cl,EC50,[4],14 nM
same,Emax,[4],94%
same,IC50,Nociceptin receptor [1],2.2 nM
same,IC50,Mu-type opioid receptor [5],25 nM
same,EC50,[6],18 nM
same,IC50,Mu-type opioid receptor [7],67 nM
same,IC50,[8],5.3 nM
same,IC50,[9],238 nM
same,IC50,Nociceptin receptor [2],1.1 nM
same,remaining at 0.5 h,[3],70%
C[C@@H]1CN(CCO)CCN1c1cc2[nH]c(SC(C)(C)C)nc2cc1Cl,Kp at 1 h,[10],0.47
same,half-life,[11],55.2 min
same,IC50,[4],1200 nM
same,inhibition,[12],52%
same,bioavailability,[13],29%
same,IC50,Nociceptin receptor [1],0.65 nM
same,half-life,[14],186 min
same,bioavailability,[15],33%
same,IC50,Mu-type opioid receptor [5],97 nM
same,IC50,[6],180 nM
same,Drug uptake,Mus musculus,1.04 µmol/kg
same,inhibition,[16],52%
same,inhibition at 10 µM,hERG (KCNH2),86%
same,clearance,[17],121 mL/min/kg
same,IC50,Mu-type opioid receptor [7],1900 nM
same,IC50,[8],120 nM
same,bioavailability,[18],37%
same,inhibition,[19],68%
same,clearance,[20],20 mL/min/kg
same,clearance,[21],81 mL/min/kg
same,IC50,[9],> 1000 nM
same,half-life,[22],48.6 min
same,concentration at 1 h,[23],2380 nM
same,IC50,Nociceptin receptor [2],2.6 nM
same,remaining at 0.5 h,[3],87%
CCC(CC)Sc1nc2cc(Cl)c(N3CCN(CCO)C(C)C3)cc2[nH]1 (racemic),IC50,Nociceptin receptor [1],22 nM
same,IC50,Nociceptin receptor [2],8 nM
same,remaining at 0.5 h,[3],17%
CCC(C)(CC)Sc1nc2cc(Cl)c(N3CCN(CCO)CC3)cc2[nH]1,remaining at 0.5 h,[3],36%
CC(C)(C)Sc1nc2cc(Cl)c(N3CCN(CCO)CC3)cc2[nH]1,IC50,[9],> 1000 nM
same,remaining at 0.5 h,[3],71%

# Reference: ChEMBL document CHEMBL1150320, “Novel ORL1-selective antagonists with oral bioavailability and brain penetrability” (Bioorg Med Chem Lett, 2008)
